The text below walks through data of ChEMBL document CHEMBL1135443, “Acyclic nucleoside analogues as novel inhibitors of human mitochondrial thymidine kinase” (J Med Chem, 2002).

Structures are written as SMILES.

Assay [1] concerns the target Thymidine kinase 2, mitochondrial (Homo sapiens) (UniProt O00142).
The subject of assay [2] is Thymidine kinase (Herpes simplex virus type 1). To be noted: Human alphaherpesvirus 1.

Thymidine kinase 2, mitochondrial (Homo sapiens), sequence (O00142 whole entry, looked up): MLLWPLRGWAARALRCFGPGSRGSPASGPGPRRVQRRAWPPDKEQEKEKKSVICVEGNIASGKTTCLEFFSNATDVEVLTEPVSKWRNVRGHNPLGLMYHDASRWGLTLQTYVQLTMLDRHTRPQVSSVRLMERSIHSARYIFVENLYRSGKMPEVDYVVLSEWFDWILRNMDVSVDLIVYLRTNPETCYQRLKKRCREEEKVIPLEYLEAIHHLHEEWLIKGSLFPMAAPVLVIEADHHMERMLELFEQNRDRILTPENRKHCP

Consider `Cc1cn(C/C=C\COC(c2ccccc2)(c2ccccc2)c2ccccc2)c(=O)nc1N`, for which the NEA result in assay [1] and in assay [2] was “Not estimated accurately” in each case. For the molecule `Cc1cn(C/C=C\CO)c(=O)[nH]c1=O`, the NEA result in assay [1] and in assay [2] was “Not estimated accurately” in each case. Consider `Cc1cn(CC#CCOC(c2ccccc2)(c2ccccc2)c2ccccc2)c(=O)[nH]c1=O`, for which, in assay [1], the NEA entry is on record as “Not estimated accurately”. On to `Cc1cn(C/C=C\COC(c2ccccc2)(c2ccccc2)c2ccccc2)c(=O)n(C)c1=O`, for which the NEA entry in assay [1] and in assay [2] was “Not estimated accurately” in each case. For the molecule `Cc1cn(Cc2ccccc2COC(c2ccccc2)(c2ccccc2)c2ccccc2)c(=O)[nH]c1=O`, the NEA entry in assay [1] and in assay [2] was “Not estimated accurately” in each case. Take `Nc1nc(O)c2ncn(C/C=C\COC(c3ccccc3)(c3ccccc3)c3ccccc3)c2n1`: the NEA entry in assay [1] and in assay [2] was “Not estimated accurately” in each case. Take `COc1ccc(C(OC[C@H]2O[C@@H](n3cc(C)c(=O)[nH]c3=O)C[C@@H]2O)(c2ccccc2)c2ccc(OC)cc2)cc1`: in assay [1], the NEA result is on record as “Not estimated accurately”.
